From ChEMBL document CHEMBL1921701, “Synthesis of GSK3β mimetic inhibitors of Akt featuring a novel extended dipeptide surrogate” (Bioorg Med Chem Lett, 2011)

Columns and labels:
[1] = target: T1, RAC-alpha serine/threonine-protein kinase (Homo sapiens, UniProt P31749); experiment: Inhibition of His-tagged ATP-binding domain of AKT1 assessed as GRPRTSSFAEG crosstide phosphorylation using [33P]ATP
[2] = target: T1, RAC-alpha serine/threonine-protein kinase; experiment: Inhibition of His-tagged ATP-binding domain of AKT1 assessed as residual activity by measuring GRPRTSSFAEG crosstide phosphorylation at 50 uM using [33P]ATP

T1 sequence (P31749 whole entry, the tested form may be a part): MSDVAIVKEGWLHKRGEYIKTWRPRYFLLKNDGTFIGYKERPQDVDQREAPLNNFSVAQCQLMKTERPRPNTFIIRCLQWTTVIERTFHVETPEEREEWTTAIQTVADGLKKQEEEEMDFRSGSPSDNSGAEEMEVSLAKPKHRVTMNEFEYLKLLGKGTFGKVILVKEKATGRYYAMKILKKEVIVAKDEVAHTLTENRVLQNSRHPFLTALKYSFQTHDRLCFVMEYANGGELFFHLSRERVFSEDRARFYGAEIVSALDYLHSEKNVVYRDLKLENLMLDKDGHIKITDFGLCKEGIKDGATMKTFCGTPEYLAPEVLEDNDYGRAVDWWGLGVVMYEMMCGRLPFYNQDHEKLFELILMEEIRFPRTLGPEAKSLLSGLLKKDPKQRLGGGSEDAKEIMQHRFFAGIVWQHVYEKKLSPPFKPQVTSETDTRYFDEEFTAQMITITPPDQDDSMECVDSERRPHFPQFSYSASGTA

Row | IC50 [1] | inhibition [1] | Activity [2] | SMILES
1 | 40.2 µM | – | – | CC(C)[C@H](NC(=O)[C@@H]1CC[C@H]2[C@H](NC(=O)CCCCN=C(N)N)COC(=O)N12)C(=O)NC(Cc1ccccc1)C(=O)NCc1ccccc1 (mixture of isomers)
2 | 16.3 µM | Dose-dependent effect | 14.6% | CC(C)[C@H](NC(=O)[C@@H]1CC[C@H]2[C@H](NC(=O)[C@H](CCCNC(=N)N)NC(=O)c3ccccc3)COC(=O)N12)C(=O)NC(Cc1ccccc1)C(=O)NCc1ccccc1 (mixture of isomers)
3 | 15 µM | – | – | CC(C)[C@H](NC(=O)[C@@H]1CC[C@H]2[C@H](NC(=O)[C@H](CCCN=C(N)N)NC(=O)Cc3ccccc3)COC(=O)N12)C(=O)NC(Cc1ccccc1)C(=O)NCc1ccccc1 (mixture of isomers)
4 | 3.1 µM | – | – | CC(C)[C@H](NC(=O)[C@@H]1CC[C@H]2[C@H](NC(=O)[C@H](CCCN=C(N)N)NC(=O)OCc3ccccc3)COC(=O)N12)C(=O)NC(Cc1ccccc1)C(=O)NCc1ccccc1 (mixture of isomers)
5 | – | Dose-dependent effect | 21.1% | CC(C)[C@H](NC(=O)[C@@H]1CC[C@H]2[C@H](NC(=O)CCCCNC(=N)N)COC(=O)N12)C(=O)NC(Cc1ccccc1)C(=O)NCc1ccccc1 (mixture of isomers)
6 | – | – | 89.4% | CC(C)[C@H](NC(=O)[C@@H]1CC[C@H]2[C@H](NC(=O)CNC(=N)N)COC(=O)N12)C(=O)NC(Cc1ccccc1)C(=O)NCc1ccccc1 (mixture of isomers)
7 | – | Dose-dependent effect | 16.8% | CC(C)[C@H](NC(=O)[C@@H]1CC[C@H]2[C@H](NC(=O)[C@H](CCCNC(=N)N)NC(=O)Cc3ccccc3)COC(=O)N12)C(=O)NC(Cc1ccccc1)C(=O)NCc1ccccc1 (mixture of isomers)
8 | – | Dose-dependent effect | 2.2% | CC(C)[C@H](NC(=O)[C@@H]1CC[C@H]2[C@H](NC(=O)[C@H](CCCNC(=N)N)NC(=O)OCc3ccccc3)COC(=O)N12)C(=O)NC(Cc1ccccc1)C(=O)NCc1ccccc1 (mixture of isomers)
